The source of these data is patent US20140213506A1, “THYMOSIN ALPHA PEPTIDE FOR PREVENTING, REDUCING THE SEVERITY OF, AND TREATING INFECTION” (priority 2011, published 2014).

The conditions of data set [1]: TA1 0.3-1.2 mg/kg/dose i.p. with Fluvirin.
For data set [2] the following is noted: TA1 0.28 or 0.57 mg/kg s.c. with vaccine.
Procedure: The vaccine (either Agrippal influPozzi seasonal vaccine, non-adjuvanted, or Fluad, MF-59 adjuvanted) was administered via intramuscular injection to the right leg at a full human dose of 0.5 mL. TA1 (0.285 or 0.570 mg/kg/dose) was administered by the subcutaneous route at a dose volume that, using a scaling factor for ferret/human dosing, corresponding to approximate human doses of 3.2 or 6.4 mg/kg. Animals were observed twice daily for mortality, general health, and both local and systemic signs of toxicity and illness as well as behavior under the responsibility of a professional veterinarian. Body weights were recorded prior to dosing only.
For data set [3] the following is noted: cited from earlier work.
For data set [4] the following is noted: cited from earlier work. This is another data set of the same source.
The conditions of data set [5]: doses as high as 800 times the recommended human dose; cited from earlier work.

No end group written: not given here.

With “Ac-SDAAVDTSSEITTKDLKEKKEVVEEAEN [TA1, (N-acetyl)-Ser-Asp-Ala-Ala-Val-Asp-Thr-Ser-Ser-Glu-11e-Thr-Thr-Lys-Asp-Leu-Lys-Glu-Lys-Lys-Glu-Val-Val-Glu-Glu-Ala-Glu-Asn-OH]”, in data set [1], the “clinical/cageside observations and body weight effects” value was “no test article-related clinical/cageside observations or body weight effects”; the survival entry is reported as “All animals survived until scheduled termination”. For the same substance, in data set [2], the “safety and tolerability, cage-side observations” value was “safe and well-tolerated”. Besides, the “worsening of side effects in combination” value in data set [3] (TA1 combined with other agents such as interferon and chemotherapy) is on record as “Nor has there been any worsening of side effects”. Also, in data set [3] (more than 3,000 patients (adults, elderly, children; hepatitis B and C, primary immunodeficiency, cancers)), the drug-related side effects entry is “virtually no drug-related side effects”. Further, in data set [4] (after injection of 3.2 mg of TA1 (about 40 μg/kg)), the Peak plasma levels result is “approximately 100 ng/ml”. For the same substance, the “half-life of TA1 in the circulation” value in data set [4] (in vivo) is on record as “about 2 hours”. In addition, in data set [4] (subcutaneously injected TA1), the plasma half-life entry was “about two”. In addition, the adverse clinical signs result in data set [5] is on record as “no evidence of adverse clinical signs”.
